Results as given in patent US8940744B2, “Pyrazolopyrimidine compounds as kinase inhibitors” (Principia Biopharma Inc., priority 2012, dated 2015).

Biological target: protein target (Homo sapiens (Human), UniProt Q06187)
Assay: Reversibility of binding (compound in solution before and after target perturbation, HPLC-MS/MS)
Conditions: after 5 M guanidine hydrochloride denaturation and trypsin digestion
Description: The following approach was developed to differentiate compounds that form irreversible covalent bond with their targets, such as non-cyano containing acrylamide compounds, from compound that form reversible covalent bond i.e., compounds and/or pharmaceutically acceptable salts of the present disclosure. […] The reactions were then treated with perturbations including both denaturation with 5 M guanidine hydrochloride and digestion with trypsin, disrupting proper folding of the target. […] The concentration of compound in solution was assessed both preceding and following perturbation using high performance liquid chromatography (HPLC) coupled to tandem mass spectrometry.

Chain of protein target (Q06187 whole entry): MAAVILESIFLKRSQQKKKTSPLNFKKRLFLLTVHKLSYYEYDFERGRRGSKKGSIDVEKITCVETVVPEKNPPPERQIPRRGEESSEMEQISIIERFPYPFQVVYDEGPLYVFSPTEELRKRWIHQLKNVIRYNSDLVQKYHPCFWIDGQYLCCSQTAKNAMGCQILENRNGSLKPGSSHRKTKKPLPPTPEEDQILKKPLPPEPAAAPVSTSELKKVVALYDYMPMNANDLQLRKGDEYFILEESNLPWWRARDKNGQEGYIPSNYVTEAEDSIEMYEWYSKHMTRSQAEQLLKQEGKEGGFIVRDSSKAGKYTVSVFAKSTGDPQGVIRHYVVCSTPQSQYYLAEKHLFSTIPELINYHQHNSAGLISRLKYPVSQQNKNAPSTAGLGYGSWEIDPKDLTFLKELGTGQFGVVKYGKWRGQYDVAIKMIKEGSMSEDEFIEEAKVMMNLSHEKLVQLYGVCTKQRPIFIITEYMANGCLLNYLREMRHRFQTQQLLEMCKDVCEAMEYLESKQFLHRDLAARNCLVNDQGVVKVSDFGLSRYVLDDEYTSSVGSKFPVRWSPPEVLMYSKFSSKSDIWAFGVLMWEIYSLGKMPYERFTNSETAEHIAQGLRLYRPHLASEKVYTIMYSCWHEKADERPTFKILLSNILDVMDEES

SMILES | Compound in solution in the denatured or digested state?
CN(C1COC1)C(C)(C)C=C(C#N)C(=O)N1CCC[C@H]1Cn1nc(-c2ccc(Oc3ccccc3)cc2F)c2c(N)ncnc21 [Example 10, 2-[(2S)-2-[[4-amino-3-(2-fluoro-4-phenoxy-phenyl)pyrazolo[3,4-d]pyrimidin-1-yl]methyl]pyrrolidine-1-carbonyl]-4-methyl-4-[methyl(oxetan-3-yl)amino]pent-2-enenitrile] | yes

Same assay, conditions: native (folded) target, target in excess of compound

SMILES | Compound in solution in the native state?
CN(C1COC1)C(C)(C)C=C(C#N)C(=O)N1CCC[C@H]1Cn1nc(-c2ccc(Oc3ccccc3)cc2F)c2c(N)ncnc21 [Example 10, 2-[(2S)-2-[[4-amino-3-(2-fluoro-4-phenoxy-phenyl)pyrazolo[3,4-d]pyrimidin-1-yl]methyl]pyrrolidine-1-carbonyl]-4-methyl-4-[methyl(oxetan-3-yl)amino]pent-2-enenitrile] | no

Biological target: human recombinant Btk (Homo sapiens (Human), UniProt Q06187)
Sequence (Q06187 whole entry): as above
Assay: Btk Enzymatic Activity Assay (Caliper-based kinase assay)
Format: biochemical
Conditions: not given
Description: A Caliper-based kinase assay (Caliper Life Sciences, Hopkinton, Mass.) was used to measure inhibition of Btk kinase activity of a compound of the present disclosure. […] The reaction was then terminated with EDTA, final concentration 20 mM and the phosphorylated reaction product was quantified on a Caliper Desktop Profiler (Caliper LabChip 3000). […] This value is presented as the IC50.

SMILES | IC50
CCN1CCN(C(C)(C)C=C(C#N)C(=O)N2CCC[C@H]2Cn2nc(-c3ccc(Oc4ccccc4)cc3F)c3c(N)ncnc32)CC1 [Example 8A, 2-[(2S)-2-[[4-amino-3-(2-fluoro-4-phenoxyphenyl)pyrazolo[3,4-d]pyrimidin-1-yl]-methyl]pyrrolidine-1-carbonyl]-4-methyl-4-(4-ethylpiperazin-1-yl)pent-2-enenitrile] | 0.9 nM
CN1CCN(C(C)(C)C=C(C#N)C(=O)N2CCC[C@H]2Cn2nc(-c3ccc(Oc4ccccc4)cc3F)c3c(N)ncnc32)CC1 [Example 8, 2-[(2S)-2-[[4-amino-3-(2-fluoro-4-phenoxyphenyl)pyrazolo[3,4-d]pyrimidin-1-yl]-methyl]pyrrolidine-1-carbonyl]-4-methyl-4-(4-methylpiperazin-1-yl)pent-2-enenitrile] | 3.8 nM
CC(C)(C=C(C#N)C(=O)N1CCC[C@H]1Cn1nc(-c2ccc(Oc3ccccc3)cc2F)c2c(N)ncnc21)N1CC2(COC2)C1 [Example 19a, (S)-2-(2-((4-amino-3-(2-fluoro-4-phenoxyphenyl)-1H-pyrazolo[3,4-d]pyrimidin-1-yl)methyl)pyrrolidine-1-carbonyl)-4-methyl-4-(2-oxa-6-azaspiro[3.3]heptan-6-yl)pent-2-enenitrile] | 5.6 nM

Same assay, conditions: human recombinant Btk 0.5 nM, ATP 16 μM, room temperature 3 h

SMILES | IC50
CC(C)(C=C(C#N)C(=O)N1CCC[C@H]1Cn1nc(-c2ccc(Oc3ccccc3)cc2F)c2c(N)ncnc21)N1CCCC1 [Example 5, (S)-2-(2-((4-amino-3-(2-fluoro-4-phenoxyphenyl)-1H-pyrazolo[3,4-d]-pyrimidin-1-yl)-methyl)pyrrolidine-1-carbonyl)-4-methyl-4-(pyrrolidin-1-yl)pent-2-enenitrile] | 1.9 nM
CN(C1COC1)C(C)(C)C=C(C#N)C(=O)N1CCC[C@@H](n2nc(-c3ccc(Oc4ccccc4)cc3F)c3c(N)ncnc32)C1 [Example 13, 2-[(3R)-3-[4-amino-3-(2-fluoro-4-phenoxy-phenyl)pyrazolo[3,4-d]pyrimidin-1-yl]piperidine-1-carbonyl]-4-methyl-4-[methyl(oxetan-3-yl)amino]pent-2-enenitrile] | 0.6 nM
CC(C)(C=C(C#N)C(=O)N1CCC[C@@H](n2nc(-c3ccc(Oc4ccccc4)cc3F)c3c(N)ncnc32)C1)N1CCN(S(C)(=O)=O)CC1 [Example 25, (R)-2-(3-(4-amino-3-(2-fluoro-4-phenoxyphenyl)-1H-pyrazolo[3,4-d]pyrimidin-1-yl)piperidine-1-carbonyl)-4-methyl-4-(4-(methylsulfonyl)piperazin-1-yl)pent-2-enenitrile] | 1.4 nM
CCN(C1COC1)C(C)(C)C=C(C#N)C(=O)N1CCC[C@@H](n2nc(-c3ccc(Oc4ccccc4)cc3F)c3c(N)ncnc32)C1 [Example 13a, (R)-2-(3-(4-amino-3-(2-fluoro-4-phenoxyphenyl)-1H-pyrazolo[3,4-d]pyrimidin-1-yl)piperidine-1-carbonyl)-4-(ethyl(oxetan-3-yl)amino)-4-methylpent-2-enenitrile] | 0.9 nM
CCN1CCN(C(C)(C)C=C(C#N)C(=O)N2CCC[C@@H](n3nc(-c4ccc(Oc5ccccc5)cc4F)c4c(N)ncnc43)C2)CC1 [Example 20, 2-[(3R)-3-[4-amino-3-(2-fluoro-4-phenoxy-phenyl)pyrazolo[3,4-d]-pyrimidin-1-yl]piperidine-1-carbonyl]-4-(4-ethylpiperazin-1-yl)-4-methyl-pent-2-enenitrile] | 0.9 nM
CCN1CCN(C(C)(C)C=C(C#N)C(=O)N2CCC[C@@H](n3nc(-c4ccc(Oc5ccccc5)cc4F)c4c(N)ncnc43)C2)CC1=O [Example 34, (R)-2-(3-(4-amino-3-(2-fluoro-4-phenoxyphenyl)-1H-pyrazolo[3,4-d]pyrimidin-1-yl)piperidine-1-carbonyl)-4-(4-ethyl-3-oxopiperazin-1-yl)-4-methylpent-2-enenitrile] | 1.3 nM
CC(C)N1CCN(C(C)(C)C=C(C#N)C(=O)N2CCC[C@@H](n3nc(-c4ccc(Oc5ccccc5)cc4F)c4c(N)ncnc43)C2)CC1 [Example 21, (R)-2-(3-(4-amino-3-(2-fluoro-4-phenoxyphenyl)-1H-pyrazolo[3,4-d]pyrimidin-1-yl)piperidine-1-carbonyl)-4-(4-isopropylpiperazin-1-yl)-4-methylpent-2-enenitrile] | 0.7 nM
CC(C)(C=C(C#N)C(=O)N1CCC[C@@H](n2nc(-c3ccc(Oc4ccccc4)cc3F)c3c(N)ncnc32)C1)N1CCC(O)CC1 [Example 18, (R)-2-(3-(4-amino-3-(2-fluoro-4-phenoxyphenyl)-1H-pyrazolo[3,4-d]pyrimidin-1-yl)piperidine-1-carbonyl)-4-(4-hydroxypiperidin-1-yl)-4-methylpent-2-enenitrile] | 0.7 nM
CN(C1COC1)C(C)(C)C=C(C#N)C(=O)N1CCC[C@H]1Cn1nc(-c2ccc(Oc3ccccc3)cc2F)c2c(N)ncnc21 [Example 10, 2-[(2S)-2-[[4-amino-3-(2-fluoro-4-phenoxy-phenyl)pyrazolo[3,4-d]pyrimidin-1-yl]methyl]pyrrolidine-1-carbonyl]-4-methyl-4-[methyl(oxetan-3-yl)amino]pent-2-enenitrile] | 2.1 nM
CC(C)(C=C(C#N)C(=O)N1CCC1Cn1nc(-c2ccc(Oc3ccccc3)cc2F)c2c(N)ncnc21)N1CCOCC1 (stereo not shown) [Example 15, 2-[2-[[4-amino-3-(2-fluoro-4-phenoxy-phenyl)pyrazolo[3,4-d]pyrimidin-1-yl]methyl]azetidine-1-carbonyl]-4-methyl-4-morpholino-pent-2-enenitrile] | 4.1 nM
CC(C)(C=C(C#N)C(=O)N1CCC[C@H]1Cn1nc(-c2ccc(Oc3ccccc3)cc2F)c2c(N)ncnc21)N1CCNCC1 [Example 9, 2-[(2S)-2-[[4-amino-3-(2-fluoro-4-phenoxy-phenyl)pyrazolo[3,4-d]pyrimidin-1-yl]methyl]pyrrolidine-1-carbonyl]-4-methyl-4-piperazin-1-yl-pent-2-enenitrile] | 4.7 nM
CC(C)(C=C(C#N)C(=O)N1CCC[C@@H](n2nc(-c3ccc(Oc4ccccc4)cc3F)c3c(N)ncnc32)C1)N1CC(O)C1 [Example 7, 2-((R)-3-(4-amino-3-(2-fluoro-4-phenoxyphenyl)-1H-pyrazolo[3,4-d]pyrimidin-1-yl)piperidine-1-carbonyl)-4-(3-hydroxyazetidin-1-yl)-4-methylpent-2-enenitrile] | 0.9 nM
CC(C)(C=C(C#N)C(=O)N1CCC[C@H]1Cn1nc(-c2ccc(Oc3ccccc3)cc2F)c2c(N)ncnc21)CN1CCOCC1 [Example 30, (S)-2-(2-((4-amino-3-(2-fluoro-4-phenoxyphenyl)-1H-pyrazolo[3,4-d]pyrimidin-1-yl)methyl)pyrrolidine-1-carbonyl)-4,4-dimethyl-5-morpholinopent-2-enenitrile] | 5.2 nM
CC(C)(/C=C(\C#N)C(=O)N1CCC[C@@H](n2nc(-c3ccc(Oc4ccccc4)cc3F)c3c(N)ncnc32)C1)N1CC2(COC2)C1 [Example 19, 2-[(3R)-3-[4-amino-3-(2-fluoro-4-phenoxy-phenyl)pyrazolo[3,4-d]pyrimidin-1-yl]piperidine-1-carbonyl]-4-methyl-4-(6-oxa-2-azaspiro[3.3]heptan-2-yl)pent-2-enenitrile] | 1.5 nM
